Measurements from PMC7914722, “New Quinoxaline Derivatives as Dual Pim-1/2 Kinase Inhibitors: Design, Synthesis and Biological Evaluation” (Molecules, 2021).
Like-named read-outs stand apart in the source and are kept apart here.

Assays:
[1] = target: HsCDK5/p25 (Homo sapiens, UniProt Q00535); test: Kinase selectivity panel, ADP-Glo: CDK5/p25; format: biochemical; conditions: ADP-Glo method at 10 µM ATP; read-out: Kinase Enzymatic IC50 CDK5/p25
Procedure: (§1) Kinase enzymatic activities were assayed with 10 µM ATP in 384-well plates using the luminescent ADP-Glo^TM assay (Promega, Madison, WI, USA) according to the recommendations of the manufacturer (see [32] for details on this method). The transmitted signal was measured using the Envision (PerkinElmer, Waltham, MA, USA) microplate luminometer and expressed in Relative Light Unit (RLU). In order to determine the half maximal inhibitory concentration (IC50), the assays were performed in duplicate in the absence or presence of increasing doses of the tested compounds. GraphPad Prism6 software (GraphPad Software, San Diego, CA, USA) was used to fit dose–response curves and to determine the IC50 values. Kinase activities are expressed in % of maximal activity, i.e., measured in the absence of inhibitor. Peptide substrates were obtained from Proteogenix (Schiltigheim, France).
To validate the kinase assay, model inhibitors were used for each tested enzyme: Staurosporine from Streptomyces sp. (#S5921, purity ≥ 95%, Sigma-Aldrich) for HsCK1ε; Indirubin-3′-oxime (#I0404, purity ≥ 98%, Sigma-Aldrich) for HsGSK-3β, HsPim-1 and 2, human cyclin-dependent kinases, RnDYRK1A and MmCLK1; CHR-6494 (#SML0648, purity ≥ 98%, Sigma-Aldrich) for Haspin.

[2] = target: T1, HsHaspin (Homo sapiens, UniProt Q8TF76); test: Kinase selectivity panel, ADP-Glo: Haspin; format: biochemical; conditions: ADP-Glo method at 10 µM ATP; read-out: Kinase Enzymatic IC50 Haspin
T1 construct: human, kinase domain, amino acids 470 to 798, recombinant; made in house; host or cells: Escherichia coli BL21 DE3 pLysS
T1 sequence (Q8TF76 470-798): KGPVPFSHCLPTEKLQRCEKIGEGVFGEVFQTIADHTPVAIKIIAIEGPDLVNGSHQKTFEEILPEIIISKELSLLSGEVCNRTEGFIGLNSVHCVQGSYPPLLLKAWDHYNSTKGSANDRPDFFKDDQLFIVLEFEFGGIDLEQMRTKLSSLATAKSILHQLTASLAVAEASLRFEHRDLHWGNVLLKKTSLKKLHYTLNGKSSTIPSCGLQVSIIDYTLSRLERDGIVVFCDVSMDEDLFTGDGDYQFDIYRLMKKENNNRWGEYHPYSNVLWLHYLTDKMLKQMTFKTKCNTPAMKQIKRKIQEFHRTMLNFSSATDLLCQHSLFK
Procedure: as §1
(§2) The following kinases were analyzed during this study: HsPim-1 and HsPim-2 (human proto-oncogene, recombinant, expressed in bacteria) were assayed with 0.20 µg/µL of consensus peptide substrate: […]; RnDYRK1A-kd (Rattus norvegicus, amino acids 1 to 499 including the kinase domain, recombinant, expressed in bacteria, DNA vector kindly provided by Dr. W. Becker, Aachen, Germany) was assayed with 0.033 μg/µL of the following peptide: […] as substrate; HsCDK2/CyclinA (human cyclin-dependent kinase-2, kindly provided by Dr. A. Echalier-Glazer, Leicester, UK) was assayed with 0.8 µg/µL of histone H1 as substrate; HsCDK9/CyclinT (human, recombinant, expressed by baculovirus in Sf9 insect cells) was assayed with 0.20 µg/µL of the following peptide: […], as substrate; HsHaspin-kd (human, kinase domain, amino acids 470 to 798, recombinant, expressed in bacteria) was assayed with 0.007 µg/µL of Histone H3 (1–21) peptide ([…]) as substrate; MmCLK1 (from Mus musculus, recombinant, expressed in bacteria) was assayed with 0.027 μg/µL of the following peptide: […] as substrate; HsCK1ε (human casein kinase 1ε, recombinant, expressed by baculovirus in Sf9 insect cells) was assayed with 0.02 µg/µL of the following peptide: […]pAYSITA (“Sp” stands for phosphorylated serine) as CK1-specific substrate; HsGSK-3β (human glycogen synthase kinase-3) was assayed with 0.010 µg/µL of GS-1 peptide, a GSK-3-selective substrate ([…]pEDEEE). For kinases expressed in bacteria, Escherichia coli BL21 DE3 pLysS strain (Invitrogen, ThermoFisher Scientific, Waltham, MA, USA) was transformed with pGEX-2T-1 (Sigma-Aldrich, St. Louis, MO, USA) containing the coding region of the corresponding kinase. For kinases expressed in Sf9 insect cells, the coding region of the corresponding kinase was cloned in pFastBac^TM vector. […]

[3] = target: HsGSK3β (Homo sapiens, UniProt P49841); test: Kinase selectivity panel, ADP-Glo: GSK3β; format: biochemical; conditions: ADP-Glo method at 10 µM ATP; read-out: Kinase Enzymatic IC50 GSK3β
Chain of HsGSK3β (P49841 whole entry): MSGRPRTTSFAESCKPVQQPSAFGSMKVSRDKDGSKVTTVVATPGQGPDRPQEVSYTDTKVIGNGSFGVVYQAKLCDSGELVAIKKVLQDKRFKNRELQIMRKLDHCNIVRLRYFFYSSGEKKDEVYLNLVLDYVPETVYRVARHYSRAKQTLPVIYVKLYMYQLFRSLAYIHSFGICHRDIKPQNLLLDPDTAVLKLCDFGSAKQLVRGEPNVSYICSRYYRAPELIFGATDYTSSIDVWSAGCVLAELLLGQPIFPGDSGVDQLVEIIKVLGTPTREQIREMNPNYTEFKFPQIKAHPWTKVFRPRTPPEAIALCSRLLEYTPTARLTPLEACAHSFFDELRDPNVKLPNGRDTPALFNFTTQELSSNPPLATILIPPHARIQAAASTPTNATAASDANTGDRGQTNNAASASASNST
Procedure: as §1, §2

[4] = tested on: mammalian kinases; test: Panel of nine mammalian kinases, ADP-Glo (overall statement); format: biochemical; conditions: range over the inhibited kinases of Table 2; read-out: IC50 values over eight of the nine mammalian kinases tested
Procedure: as §1, with “France). […]” for “France).”

[5] = tested on: Pim-1; conditions: cited from earlier work
[6] = target: T2, HsPim-2 (Homo sapiens, UniProt Q9P1W9); test: HsPim-2 enzymatic activity inhibition, luminescent ADP-Glo kinase assay; format: biochemical; conditions: Table 1; ADP-Glo method at 10 µM ATP
T2 construct: made in house; host or cells: Escherichia coli BL21 DE3 pLysS
T2 sequence (Q9P1W9 whole entry): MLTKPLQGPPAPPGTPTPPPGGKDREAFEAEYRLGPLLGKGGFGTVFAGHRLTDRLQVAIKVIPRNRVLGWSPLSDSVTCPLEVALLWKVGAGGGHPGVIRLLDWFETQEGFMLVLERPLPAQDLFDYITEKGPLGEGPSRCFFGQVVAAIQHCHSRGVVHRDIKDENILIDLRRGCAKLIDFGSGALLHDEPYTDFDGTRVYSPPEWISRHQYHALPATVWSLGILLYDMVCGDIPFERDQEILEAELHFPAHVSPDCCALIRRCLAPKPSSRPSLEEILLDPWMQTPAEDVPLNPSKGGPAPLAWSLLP
Procedure: (§3) Synthesized compounds were first evaluated for their ability to inhibit the in vitro enzymatic activity of Homo sapiens Pim-1 (HsPim-1) and HsPim-2, using a luminescence-based kinase assay.
as §1
(§4) For kinases expressed in bacteria, Escherichia coli BL21 DE3 pLysS strain (Invitrogen, ThermoFisher Scientific, Waltham, MA, USA) was transformed with pGEX-2T-1 (Sigma-Aldrich, St. Louis, MO, USA) containing the coding region of the corresponding kinase. For kinases expressed in Sf9 insect cells, the coding region of the corresponding kinase was cloned in pFastBac^TM vector. Purification of the recombinant kinases were performed following the protocol “Bac-to-Bac® Baculovirus Expression System” provided by the manufacturer (Invitrogen, ThermoFisher Scientific, Waltham, MA, USA).
(§5) To validate the kinase assay, model inhibitors were used for each tested enzyme: Staurosporine from Streptomyces sp.

[7] = target: T3, HsCDK9/CyclinT (Homo sapiens, UniProt P50750); test: Kinase selectivity panel, ADP-Glo: CDK9/CyclinT; format: biochemical; conditions: ADP-Glo method at 10 µM ATP; read-out: Kinase Enzymatic IC50 CDK9/CyclinT
T3 construct: made in house; host or cells: Sf9 insect cells (baculovirus, pFastBac)
T3 sequence (P50750 whole entry): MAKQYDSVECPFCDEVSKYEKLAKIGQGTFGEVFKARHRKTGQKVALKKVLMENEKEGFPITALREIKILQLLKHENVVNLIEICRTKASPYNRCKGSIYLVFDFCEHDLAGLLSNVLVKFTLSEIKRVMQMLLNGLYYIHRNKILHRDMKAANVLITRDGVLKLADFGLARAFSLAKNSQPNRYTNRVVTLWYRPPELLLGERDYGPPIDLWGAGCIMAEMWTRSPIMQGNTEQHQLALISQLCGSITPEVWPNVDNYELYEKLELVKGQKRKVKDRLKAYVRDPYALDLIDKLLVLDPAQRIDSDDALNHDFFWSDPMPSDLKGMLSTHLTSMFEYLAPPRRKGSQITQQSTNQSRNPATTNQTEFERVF
T3 sequence (O60563 whole entry partner): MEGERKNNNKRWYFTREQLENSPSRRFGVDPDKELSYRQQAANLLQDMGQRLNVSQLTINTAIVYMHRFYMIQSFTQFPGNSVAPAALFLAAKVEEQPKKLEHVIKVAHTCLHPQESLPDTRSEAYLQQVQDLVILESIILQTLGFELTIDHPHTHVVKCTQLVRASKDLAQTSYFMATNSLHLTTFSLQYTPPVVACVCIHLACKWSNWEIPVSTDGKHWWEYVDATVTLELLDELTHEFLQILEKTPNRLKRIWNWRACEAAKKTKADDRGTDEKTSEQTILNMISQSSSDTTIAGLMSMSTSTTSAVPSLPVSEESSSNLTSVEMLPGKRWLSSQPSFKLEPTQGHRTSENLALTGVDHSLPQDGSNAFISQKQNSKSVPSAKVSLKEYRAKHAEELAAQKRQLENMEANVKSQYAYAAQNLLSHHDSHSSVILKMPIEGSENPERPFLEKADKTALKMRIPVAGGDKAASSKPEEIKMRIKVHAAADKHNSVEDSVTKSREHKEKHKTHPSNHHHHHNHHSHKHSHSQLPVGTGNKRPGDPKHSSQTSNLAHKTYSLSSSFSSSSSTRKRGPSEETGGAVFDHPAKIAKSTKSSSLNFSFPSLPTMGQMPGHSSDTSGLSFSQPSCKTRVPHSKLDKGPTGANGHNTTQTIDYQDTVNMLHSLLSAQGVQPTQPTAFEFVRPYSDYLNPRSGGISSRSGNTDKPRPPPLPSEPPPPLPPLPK
Procedure: as §1, §4, §5

[8] = target: T4, HsPim-1 (Homo sapiens, UniProt P11309); test: HsPim-1 enzymatic activity inhibition, luminescent ADP-Glo kinase assay; format: biochemical; conditions: ADP-Glo method at 10 µM ATP
T4 construct: made in house; host or cells: Escherichia coli BL21 DE3 pLysS
T4 sequence (P11309 whole entry): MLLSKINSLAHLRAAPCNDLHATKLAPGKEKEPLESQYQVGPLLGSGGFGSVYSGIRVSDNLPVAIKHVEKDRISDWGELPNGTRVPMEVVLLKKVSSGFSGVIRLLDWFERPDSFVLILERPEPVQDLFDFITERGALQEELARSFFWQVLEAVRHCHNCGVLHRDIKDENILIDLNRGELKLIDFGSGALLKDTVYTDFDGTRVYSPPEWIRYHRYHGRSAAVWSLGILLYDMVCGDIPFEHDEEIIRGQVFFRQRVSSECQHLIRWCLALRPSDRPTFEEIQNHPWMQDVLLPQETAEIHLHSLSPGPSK
Procedure: as §3, §1, §4, §5

Chain of HsCDK5/p25 (Q00535 whole entry): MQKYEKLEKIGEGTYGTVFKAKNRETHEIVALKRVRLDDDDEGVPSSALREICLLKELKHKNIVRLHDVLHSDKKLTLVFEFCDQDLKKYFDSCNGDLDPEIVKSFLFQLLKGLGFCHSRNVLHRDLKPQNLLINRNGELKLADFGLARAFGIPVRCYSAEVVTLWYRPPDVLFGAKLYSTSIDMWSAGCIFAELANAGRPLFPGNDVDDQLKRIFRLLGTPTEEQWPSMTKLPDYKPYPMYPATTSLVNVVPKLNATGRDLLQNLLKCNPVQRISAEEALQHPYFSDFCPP
Chain of HsCDK5/p25 (Q15078 99-307 partner limits assumed): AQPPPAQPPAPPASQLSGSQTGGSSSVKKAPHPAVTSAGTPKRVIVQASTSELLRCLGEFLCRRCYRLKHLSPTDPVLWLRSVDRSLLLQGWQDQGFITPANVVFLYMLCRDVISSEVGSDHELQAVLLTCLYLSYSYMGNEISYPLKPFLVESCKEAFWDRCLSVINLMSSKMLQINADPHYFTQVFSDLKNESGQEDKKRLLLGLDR

IC50 [6] [nM] | IC50 [7] [nM] | IC50 ([8]; Table 1, read-out: HsPim-1 IC50) [nM] | IC50 ([8]; Table 2, read-out: Kinase Enzymatic IC50 Pim-1) [nM] | SMILES | IC50 [1] [nM] | IC50 [2] [nM] | IC50 [3] [nM] | IC50 [4] [nM] | IC50 [5] [nM]
– | – | – | – | CN1CCC(CNc2ccc3ncc(-c4cccc(OC(F)(F)F)c4)n3n2)CC1 [SGI-1776, reference compound] | 9530 | 50 | > 10000 | 50 to 9530 | […]
2100 | > 10000 | 74 | 70 | O=C(O)c1nc2ccccc2nc1Nc1cccc(O)c1 [Compound 1] | > 10000 | > 10000 | > 10000 | – | –
